Source: paper PMC6001238, “Iterative Chemical Engineering of Vancomycin Leads to Novel Vancomycin Analogs With a High in Vitro Therapeutic Index” (Frontiers in Microbiology, 2018)
≈ marks a conversion by molar mass, not a printed value.

Columns and labels:
[1] = test system: MRSA KS2; test: MIC, broth microdilution, MRSA KS2; type: cell-based, Staphylococcus aureus; settings: for MIC-fold improvement vs. vancomycin: MRSA KS2, ratio of MIC of vancomycin and MIC of analogue; for MIC: Staphylococcus aureus MRSA KS2, read-out: MIC
Outline: (§1)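 Susceptibility was scored by broth microdilution (CLSI). In one instance each vancomycin analog or control antibiotic was tested in the presence of vancomycin, 10 μM final, and ultrapure water plus non-inoculated broth were included as controls.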

[2] = test system: E. faecalis VRE 6; test: MIC, broth microdilution, vancomycin-resistant E. faecalis VRE 6 (VanA); type: cell-based, Enterococcus faecalis; settings: for MIC: Enterococcus faecalis VRE 6 (vancomycin-resistant), read-out: MIC; for MIC-fold improvement vs. vancomycin: VRE 6, ratio of MIC of vancomycin and MIC of analogue
Outline: as §1

[3] = test system: E. faecalis VSE 1; test: MIC, broth microdilution, vancomycin-sensitive E. faecalis (VSE 1); type: cell-based, Enterococcus faecalis; settings: for MIC: Enterococcus faecalis VSE 1 (vancomycin-sensitive), read-out: MIC; for MIC-fold improvement vs. vancomycin: VSE 1, ratio of MIC of vancomycin and MIC of analogue
Outline: as §1

[4] = test system: Clostridium difficile ATJ ribotype 014/20; test: MIC, plate drop assay, C. difficile ATJ ribotype 014/20; type: cell-based; settings: C. difficile ATJ ribotype 014/20
Description: (§2) Bacterial lawns of both C. difficile strains were prepared by adding 0.5 mL overnight culture to 8 mL sloppy BHI agar (0.4% agar) supplemented with 1.5 g/L CaCl2⋅2H2O and 81.2 g/L MgCl2⋅6H2O, and pouring the mixture into Petri plates. A twofold dilution series of the selected vancomycin analogs, vancomycin ([…]) and daptomycin (25 μM) was spotted (10 μL) on the bacterial lawn. Spots were air-dried and the plates were incubated overnight at 37°C in an anaerobic cabinet. Ultrapure water was included as negative control. The assay was performed in triplicate. Inhibition was observed by cleared spots.

[5] = test system: E. faecalis VRE 37; test: MIC, broth microdilution, vancomycin-resistant E. faecalis VRE 37 (VanA); type: cell-based, Enterococcus faecalis; settings: for MIC: Enterococcus faecalis VRE 37 (vancomycin-resistant), read-out: MIC; for MIC-fold improvement vs. vancomycin: VRE 37, ratio of MIC of vancomycin and MIC of analogue
Outline: as §1

[6] = test system: S. aureus VSSA (ATCC 6538); test: MIC, broth microdilution, vancomycin-sensitive S. aureus (VSSA/MSSA, ATCC 6538); type: cell-based, Staphylococcus aureus; settings: for MIC: Staphylococcus aureus VSSA, read-out: MIC; for MIC-fold improvement vs. vancomycin: VSSA, ratio of MIC of vancomycin and MIC of analogue
Outline: as §1

[7] = test system: Murine leukemia (L1210) cells; test: Cytostatic activity, L1210 cell proliferation; type: cell-based; settings: mean ± SD of three experiments; highest concentration tested 250 µM; 2 days; read-out: Toxicity (IC50) L1210
Outline: (§3)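 Readout: Coulter cell number after drug exposure at 37°C. Durations differ by line (L1210 2 days; CEM 3 days; HeLa 4 days). Stock suspension 300,000–500,000 cells/mL, diluted by mixing with compound. Endpoint: IC50 vs negative control.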

[8] = test system: E. faecalis VRE 29; test: MIC, broth microdilution, vancomycin-resistant E. faecalis VRE 29 (VanA); type: cell-based, Enterococcus faecalis; settings: for MIC: Enterococcus faecalis VRE 29 (vancomycin-resistant), read-out: MIC
Outline: as §1

[9] = test system: human cervix carcinoma (HeLa) cells; test: Cytostatic activity, HeLa cell proliferation; type: cell-based; settings: mean ± SD of three experiments; highest concentration tested 250 µM; 4 days; read-out: Toxicity (IC50) HeLa
Outline: as §3

[10] = test system: S. aureus VISA/HIP5827; test: MIC, broth microdilution, vancomycin-intermediate S. aureus VISA HIP5827; type: cell-based, Staphylococcus aureus; settings: for MIC: Staphylococcus aureus VISA/HIP5827, read-out: MIC; for MIC-fold improvement vs. vancomycin: VISA/HIP5827, ratio of MIC of vancomycin and MIC of analogue
Outline: as §1

[11] = test system: human T-lymphocyte (CEM) cells; test: Cytostatic activity, CEM cell proliferation; type: cell-based; settings: mean ± SD of three experiments; highest concentration tested 250 µM; 3 days; read-out: Toxicity (IC50) CEM
Outline: as §3

[12] = test system: L1210, CEM and HeLa cell lines; test: Cytostatic activity, average or summary over L1210, CEM and HeLa; type: cell-based; settings: average of L1210, CEM and HeLa; read-out: Toxicity (IC50) Average
Outline: as §3

[13] = test system: MRSA KS89; test: MIC, broth microdilution, MRSA KS89; type: cell-based, Staphylococcus aureus; settings: for MIC-fold improvement vs. vancomycin: MRSA KS8, ratio of MIC of vancomycin and MIC of analogue; for MIC: Staphylococcus aureus MRSA KS8, read-out: MIC
Outline: as §1

[14] = test system: MRSA KS1; test: MIC, broth microdilution, MRSA KS1; type: cell-based, Staphylococcus aureus; settings: for MIC-fold improvement vs. vancomycin: MRSA KS1, ratio of MIC of vancomycin and MIC of analogue; for MIC: Staphylococcus aureus MRSA KS1, read-out: MIC
Outline: as §1

[15] = test system: S. aureus VRSA; test: MIC, broth microdilution, vancomycin-resistant S. aureus (VRSA); type: cell-based, Staphylococcus aureus; settings: for MIC: Staphylococcus aureus VRSA, read-out: MIC; for MIC-fold improvement vs. vancomycin: VRSA, ratio of MIC of vancomycin and MIC of analogue
Outline: as §1

[16] = test system: Clostridium difficile AIU ribotype 027; test: MIC, plate drop assay, C. difficile AIU ribotype 027; type: cell-based; settings: for MIC-fold improvement vs. vancomycin: C. difficile AIU ribotype 027
Description: as §2

[17] = test system: E. faecalis VRE 53; test: MIC, broth microdilution, vancomycin-resistant E. faecalis VRE 53 (VanA); type: cell-based, Enterococcus faecalis; settings: for MIC: Enterococcus faecalis VRE 53 (vancomycin-resistant), read-out: MIC; for MIC-fold improvement vs. vancomycin: VRE 53, ratio of MIC of vancomycin and MIC of analogue
Outline: as §1

[18] = test system: MRSA KS6; test: MIC, broth microdilution, MRSA KS6; type: cell-based, Staphylococcus aureus; settings: for MIC-fold improvement vs. vancomycin: MRSA KS6, ratio of MIC of vancomycin and MIC of analogue; for MIC: Staphylococcus aureus MRSA KS6, read-out: MIC
Outline: as §1

SMILES	MIC-fold improvement vs. vancomycin [1]	MIC [1] [µM]	MIC [2] [µM]	MIC-fold improvement vs. vancomycin [2]	MIC [3] [µM]	MIC-fold improvement vs. vancomycin [3]	MIC-fold improvement vs. vancomycin [4]	MIC [5] [µM]	MIC-fold improvement vs. vancomycin [5]	MIC [6] [µM]	MIC-fold improvement vs. vancomycin [6]	IC50 [7] [µM]	MIC [8] [µM]	IC50 [9] [µM]	MIC [10] [µM]	MIC-fold improvement vs. vancomycin [10]	IC50 [11] [µM]	IC50 [12] [µM]	MIC-fold improvement vs. vancomycin [13]	MIC [13] [µM]	also measured
CN[C@H](CC(C)C)C(=O)N[C@H]1C(=O)N[C@@H](CC(N)=O)C(=O)N[C@H]2C(=O)N[C@H]3C(=O)N[C@H](C(=O)N[C@H](C(=O)NCC(=O)Nc4ccc(C)cc4)c4cc(O)cc(O)c4-c4cc3ccc4O)[C@H](O)c3ccc(c(Cl)c3)Oc3cc2cc(c3O[C@@H]2O[C@H](CO)[C@@H](O)[C@H](O)[C@H]2O[C@H]2C[C@](C)(N)[C@H](O)[C@H](C)O2)Oc2ccc(cc2Cl)[C@H]1O [Vanc-4]	4	0.20 (≈ 0.319 µg/mL)	3.13 (≈ 4.99 µg/mL)	64	0.39 (≈ 0.622 µg/mL)	4	5.6	6.25 (≈ 9.97 µg/mL)	128	0.39 (≈ 0.622 µg/mL)	2	> 250	6.25 (≈ 9.97 µg/mL)	> 250	0.39 (≈ 0.622 µg/mL)	16	> 250	> 250	2	0.39 (≈ 0.622 µg/mL)	MIC-fold improvement vs. vancomycin ([8]; VRE 29, ratio of MIC of vancomycin and MIC of analogue): 64; MIC-fold improvement vs. vancomycin [14]: 2; MIC [14]: 0.39 µM (≈ 0.622 µg/mL); MIC [15]: 6.25 µM (≈ 9.97 µg/mL); MIC-fold improvement vs. vancomycin [15]: 16; MIC-fold improvement vs. vancomycin [16]: <1.8; MIC ([16]; C. difficile AIU ribotype 027, plate drop assay): >25 µM; MIC [17]: 6.25 µM (≈ 9.97 µg/mL); MIC-fold improvement vs. vancomycin [17]: 64; MIC-fold improvement vs. vancomycin [18]: 2; MIC [18]: 0.39 µM (≈ 0.622 µg/mL)
CN[C@H](CC(C)C)C(=O)N[C@H]1C(=O)N[C@@H](CC(N)=O)C(=O)N[C@H]2C(=O)N[C@H]3C(=O)N[C@H](C(=O)N[C@H](C(=O)NCC(=O)Nc4ccc(Cl)cc4Cl)c4cc(O)cc(O)c4-c4cc3ccc4O)[C@H](O)c3ccc(c(Cl)c3)Oc3cc2cc(c3O[C@@H]2O[C@H](CO)[C@@H](O)[C@H](O)[C@H]2O[C@H]2C[C@](C)(N)[C@H](O)[C@H](C)O2)Oc2ccc(cc2Cl)[C@H]1O [Vanc-14]	4	0.20 (≈ 0.33 µg/mL)	1.56 (≈ 2.57 µg/mL)	128	0.20 (≈ 0.33 µg/mL)	8	22	6.25 (≈ 10.3 µg/mL)	128	0.20 (≈ 0.33 µg/mL)	4	153 ± 55	3.13 (≈ 5.17 µg/mL)	148 ± 6	0.10 (≈ 0.165 µg/mL)	64	114 ± 18	138	4	0.20 (≈ 0.33 µg/mL)	MIC-fold improvement vs. vancomycin [14]: 2; MIC [14]: 0.39 µM (≈ 0.644 µg/mL); MIC [15]: 3.13 µM (≈ 5.17 µg/mL); MIC-fold improvement vs. vancomycin [15]: 32; MIC-fold improvement vs. vancomycin [16]: 29; MIC [17]: 3.13 µM (≈ 5.17 µg/mL); MIC-fold improvement vs. vancomycin [17]: 128; MIC-fold improvement vs. vancomycin [18]: 2; MIC [18]: 0.39 µM (≈ 0.644 µg/mL)
